Reference: ChEMBL document CHEMBL3734705, “Synthesis and in vitro cytotoxicity of novel C-12 substituted-14-deoxy-andrographolide derivatives as potent anti-cancer agents” (2015)

Assays:
[1] = Cytotoxicity against human Caki1 cells assessed as growth level at 10 uM after 48 hrs by SRB assay; type: functional, CAKI-1
[2] = tested on: SN12C; assay: Cytotoxicity against human SN12C cells assessed as growth inhibition at 10 uM after 48 hrs by SRB assay; type: functional; settings: read-out: GI
[3] = Cytotoxicity against human HCC2998 cells assessed as growth inhibition at 10 uM after 48 hrs by SRB assay; type: functional; settings: HCC 2998, 48 h, read-out: GI
[4] = tested on: NCI-H460; assay: Cytotoxicity against human NCI-H460 cells assessed as growth level at 10 uM after 48 hrs by SRB assay; type: functional
[5] = tested on: MDA-MB-231; assay: Cytotoxicity against human MDA-MB-231 cells assessed as growth inhibition at 10 uM after 48 hrs by SRB assay; type: functional; settings: MDA-MB-231, 48 h, read-out: GI
[6] = tested on: A498; assay: Cytotoxicity against human A498 cells assessed as growth level at 10 uM after 48 hrs by SRB assay; type: functional
[7] = Cytotoxicity against human COLO205 cells assessed as growth inhibition at 10 uM after 48 hrs by SRB assay; type: functional; settings: COLO 205, 48 h, read-out: GI
[8] = Cytotoxicity against human HCT116 cells assessed as growth level at 10 uM after 48 hrs by SRB assay; type: functional, HCT-116
[9] = Cytotoxicity against human RXF393 cells assessed as growth inhibition at 10 uM after 48 hrs by SRB assay; type: functional; settings: RXF 393, 48 h, read-out: GI
[10] = tested on: ACHN; assay: Cytotoxicity against human ACHN cells assessed as growth level at 10 uM after 48 hrs by SRB assay; type: functional
[11] = tested on: ACHN; assay: Cytotoxicity against human ACHN cells assessed as growth inhibition at 10 uM after 48 hrs by SRB assay; type: functional; settings: read-out: GI
[12] = Cytotoxicity against human UACC62 cells assessed as growth level at 10 uM after 48 hrs by SRB assay; type: functional, UACC-62
[13] = Cytotoxicity against human HCC2998 cells assessed as growth level at 10 uM after 48 hrs by SRB assay; type: functional, HCC 2998
[14] = Cytotoxicity against human HL-60(TB) cells assessed as growth level at 10 uM after 48 hrs by SRB assay; type: functional
[15] = Cytotoxicity against human SNB75 cells assessed as growth inhibition at 10 uM after 48 hrs by SRB assay; type: functional; settings: SNB-75, 48 h, read-out: GI
[16] = tested on: NCI-H460; assay: Cytotoxicity against human NCI-H460 cells assessed as growth inhibition at 10 uM after 48 hrs by SRB assay; type: functional; settings: NCI-H460, 48 h, read-out: GI
[17] = Cytotoxicity against human SF539 cells assessed as growth inhibition at 10 uM after 48 hrs by SRB assay; type: functional; settings: SF-539, 48 h, read-out: GI
[18] = Cytotoxicity against human HCT15 cells assessed as growth level at 10 uM after 48 hrs by SRB assay; type: functional, HCT-15
[19] = Cytotoxicity against human PC3 cells assessed as growth level at 10 uM after 48 hrs by SRB assay; type: functional, PC-3
[20] = Cytotoxicity against human IGROV1 cells assessed as growth level at 10 uM after 48 hrs by SRB assay; type: functional, IGROV-1
[21] = tested on: CCRF-CEM; assay: Cytotoxicity against human CCRF-CEM cells assessed as growth level at 10 uM after 48 hrs by SRB assay; type: functional
[22] = Cytotoxicity against human SKOV3 cells assessed as growth level at 10 uM after 48 hrs by SRB assay; type: functional, SK-OV-3
[23] = tested on: T47D; assay: Cytotoxicity against human T47D cells assessed as growth level at 10 uM after 48 hrs by SRB assay; type: functional
[24] = tested on: NCI-H226; assay: Cytotoxicity against human NCI-H226 cells assessed as growth inhibition at 10 uM after 48 hrs by SRB assay; type: functional; settings: NCI-H226, 48 h, read-out: GI
[25] = tested on: SN12C; assay: Cytotoxicity against human SN12C cells assessed as growth level at 10 uM after 48 hrs by SRB assay; type: functional
[26] = Cytotoxicity against human NCI-ADR-RES cells assessed as growth inhibition at 10 uM after 48 hrs by SRB assay; type: functional; settings: read-out: GI
[27] = tested on: U-251; assay: Cytotoxicity against human U251 cells assessed as growth inhibition at 10 uM after 48 hrs by SRB assay; type: functional; settings: U-251, 48 h, read-out: GI
[28] = tested on: M14; assay: Cytotoxicity against human M14 cells assessed as growth inhibition at 10 uM after 48 hrs by SRB assay; type: functional; settings: M14, 48 h, read-out: GI
[29] = tested on: M14; assay: Cytotoxicity against human M14 cells assessed as growth level at 10 uM after 48 hrs by SRB assay; type: functional
[30] = tested on: SK-MEL-28; assay: Cytotoxicity against human SK-MEL-28 cells assessed as growth level at 10 uM after 48 hrs by SRB assay; type: functional
[31] = tested on: MCF7; assay: Cytotoxicity against human MCF7 cells assessed as growth level at 10 uM after 48 hrs by SRB assay; type: functional
[32] = tested on: NCI-H23; assay: Cytotoxicity against human NCI-H23 cells assessed as growth level at 10 uM after 48 hrs by SRB assay; type: functional
[33] = tested on: A498; assay: Cytotoxicity against human A498 cells assessed as growth inhibition at 10 uM after 48 hrs by SRB assay; type: functional; settings: A498, 48 h, read-out: GI
[34] = Cytotoxicity against human UACC62 cells assessed as growth inhibition at 10 uM after 48 hrs by SRB assay; type: functional; settings: UACC-62, 48 h, read-out: GI
[35] = Cytotoxicity against human UACC257 cells assessed as growth inhibition at 10 uM after 48 hrs by SRB assay; type: functional; settings: UACC-257, 48 h, read-out: GI
[36] = tested on: MCF7; assay: Cytotoxicity against human MCF7 cells assessed as growth inhibition at 10 uM after 48 hrs by SRB assay; type: functional; settings: MCF7, 48 h, read-out: GI
[37] = Cytotoxicity against human OVCAR4 cells assessed as growth inhibition at 10 uM after 48 hrs by SRB assay; type: functional; settings: OVCAR-4, 48 h, read-out: GI
[38] = tested on: Malme-3M; assay: Cytotoxicity against human MALME-3M cells assessed as growth inhibition at 10 uM after 48 hrs by SRB assay; type: functional; settings: read-out: GI
[39] = Cytotoxicity against human OVCAR8 cells assessed as growth inhibition at 10 uM after 48 hrs by SRB assay; type: functional; settings: OVCAR-8, 48 h, read-out: GI
[40] = tested on: MDA-MB-231; assay: Cytotoxicity against human MDA-MB-231 cells assessed as growth level at 10 uM after 48 hrs by SRB assay; type: functional
[41] = Cytotoxicity against human SKOV3 cells assessed as growth inhibition at 10 uM after 48 hrs by SRB assay; type: functional; settings: SK-OV-3, 48 h, read-out: GI
[42] = Cytotoxicity against human SF268 cells assessed as growth level at 10 uM after 48 hrs by SRB assay; type: functional, SF-268
[43] = Cytotoxicity against human DU145 cells assessed as growth inhibition at 10 uM after 48 hrs by SRB assay; type: functional; settings: DU-145, 48 h, read-out: GI
[44] = Cytotoxicity against human SF295 cells assessed as growth inhibition at 10 uM after 48 hrs by SRB assay; type: functional; settings: SF-295, 48 h, read-out: GI

C=C1CC[C@@H]2[C@](C)(COC(C)=O)[C@H](OC(C)=O)CC[C@@]2(C)[C@@H]1CC(NCc1cccc(Cl)c1)C1=CCOC1=O (mixture of isomers)
Activity [1]: 48.33%
inhibition of growth at 10 µM [2]: 37.9%
inhibition of growth at 10 µM [3]: 15.4%
Activity [4]: 34.79%
inhibition of growth at 10 µM [5]: 35%
Activity [6]: 64.78%
inhibition of growth at 10 µM [7]: 63.2%
Activity [8]: 35.94%
inhibition of growth at 10 µM [9]: 49.5%
Activity [10]: 41.58%
inhibition of growth at 10 µM [11]: 58.4%
Activity [12]: 41.2%
Activity [13]: 84.55%
Activity [14]: 21.57%
inhibition of growth at 10 µM [15]: 14.1%
inhibition of growth at 10 µM [16]: 65.2%
inhibition of growth at 10 µM [17]: 25.9%
Activity [18]: 37.72%
Activity [19]: 30.08%
Activity [20]: 64.14%
Activity [21]: 42.29%
Activity [22]: 73.11%
Activity [23]: 50.73%
inhibition of growth at 10 µM [24]: 53.7%
Activity [25]: 62.07%
inhibition of growth at 10 µM [26]: 39.7%
inhibition of growth at 10 µM [27]: 69.1%
inhibition of growth at 10 µM [28]: 45%
Activity [29]: 55.02%
Activity [30]: 76.6%
Activity [31]: 42.95%
Activity [32]: 52.71%
inhibition of growth at 10 µM [33]: 35.2%
inhibition of growth at 10 µM [34]: 58.8%
inhibition of growth at 10 µM [35]: 74.8%
inhibition of growth at 10 µM [36]: 57%
inhibition of growth at 10 µM [37]: 49.6%
inhibition of growth at 10 µM [38]: 23.9%
inhibition of growth at 10 µM [39]: 57.3%
Activity [40]: 65%
inhibition of growth at 10 µM [41]: 26.9%
Activity [42]: 53.28%
inhibition of growth at 10 µM [43]: 18.1%
inhibition of growth at 10 µM [44]: 14.1%
